Assays:
Assay type in all cases: in vivo
[1] = system: ocular normotensive nonhuman primates (cynomolgus monkeys); test: Outflow facility of monkeys treated with abnormal cannabidiol; details: 0.1%
Text: (§1) Consequently, the intraocular pressure lowering effects of abnormal cannabidiol is anticipated to predominantly involve reduction of aqueous humor formation in humans and nonhuman primates.

[2] = system: ocular normotensive nonhuman primates (cynomolgus monkeys); test: Uveoscleral outflow of monkeys treated with abnormal cannabidiol; details: 0.1%
Text: as §1

[3] = system: Laser-induced unilaterally ocular hypertensive Cynomolgus monkeys; test: Intraocular pressure by applanation pneumatonometry in conscious monkeys; details: 0.1%, topical to one eye, once daily for 4 days, vehicle in fellow eye
Protocol: (§2) Intraocular pressure was measured by applanation pneumatonometry in conscious animals. The test compound was administered topically to one eye while vehicle was given to the fellow eye in a masked fashion. Ocular normotensive Beagle dogs (males, females) were dosed once daily for five days. Laser-induced unilaterally ocular hypertensive Cynomolgus monkeys (females) were dosed once daily for 4 days. Student's paired t-test was used for statistical comparisons. Differences were considered statistically significant if the P-value is less than 0.05.

[4] = system: Ocular normotensive Beagle dogs; test: Intraocular pressure by applanation pneumatonometry in conscious dogs; details: 0.1%, topical to one eye, once daily for five days, vehicle in fellow eye
Protocol: as §2

[5] = topically once-daily for 5 days

Abnormal Cannabidiol was tested, and the “Outflow Facility, Ratio, Treated:Control, Treatment” value ([1]; topical once-daily for 5 days vs vehicle, mean ± sem, n = 6 animals) was 0.93 ± 0.09, the “Outflow Facility, Treated Eye, Treatment” value ([1]; topical once-daily for 5 days, mean ± sem, n = 6 animals) was 0.57 ± 0.08 ul/min/mm Hg and the “effect on total outflow facility compared to baseline and/or contralateral vehicle-treated control eyes” value [1, 5] was “no significant effects”. The “Uveosclearal Outflow, Ratio, Treated:Control” value ([2]; topical once-daily for 5 days vs vehicle, mean ± sem, n = 5 animals) was 0.78 ± 0.05, the “Uveosclearal Outflow, Treated Eye” value ([2]; topical once-daily for 5 days, mean ± sem, n = 5 animals) was 0.58 ± 0.17 µL/min and the “effect on uveoscleral outflow compared to baseline and/or contralateral vehicle-treated control eyes” value [2, 5] was “no significant effects”. The “effect on Monkey Intraocular Pressure versus time” value [3] was “lowers IOP” and the “effect on Dog Intraocular Pressure versus time” value [4] was “lowers IOP”.
